The subject of assay [1] is LNCap prostate tumor cells. Put plainly: In vitro cell growth assay (MTS), LNCap. It counts as cell-based, human. As to conditions: three days after drug treatment. The gist of the method:
(§1)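 Tumor cells plated ~3000/well; inhibitors in DMSO added one day later (final DMSO 0.25%). After three days of treatment, viable cell density read by MTS conversion, absorbance at 490 nm. Effect expressed relative to untreated control growth.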

Assay [2] concerns MDA468 breast tumor cells. Put plainly: In vitro cell growth assay (MTS), MDA468. It counts as cell-based, human. Conditions: three days after drug treatment. The gist of the method: as §1
Assay [3] deals with PI3Kα (Homo sapiens, UniProt P42336). Put plainly: PI3Kα fluorescence polarization assay. The class given is biochemical. Conditions: 20 μM PIP2, 25 μM ATP. The gist of the method:
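Kinase reaction in 20 mM HEPES pH 7.5, 2 mM MgCl2, 0.05% CHAPS with final 20 μM diC8-PIP2 and 25 μM ATP, 30-60 min at room temperature. Stopped with 10 nM TAMRA-labelled probe plus 2.5 uM GST-murine GRP; fluorescence polarization read after 90-110 minutes.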

Assay [4] deals with human TOR (FLAG-TOR) (Homo sapiens, UniProt P42345). Put plainly: mTOR enzyme assay (DELFIA format, purified enzyme). The class given is biochemical. As to conditions: 800 ng/ml FLAG-TOR, 100 μM ATP, 1.25 μM His6-S6K; read-out: mTOR Kinase IC50.

Molecules are shown by their SMILES.

Sequence of PI3Kα (P42336 whole entry, species assumed): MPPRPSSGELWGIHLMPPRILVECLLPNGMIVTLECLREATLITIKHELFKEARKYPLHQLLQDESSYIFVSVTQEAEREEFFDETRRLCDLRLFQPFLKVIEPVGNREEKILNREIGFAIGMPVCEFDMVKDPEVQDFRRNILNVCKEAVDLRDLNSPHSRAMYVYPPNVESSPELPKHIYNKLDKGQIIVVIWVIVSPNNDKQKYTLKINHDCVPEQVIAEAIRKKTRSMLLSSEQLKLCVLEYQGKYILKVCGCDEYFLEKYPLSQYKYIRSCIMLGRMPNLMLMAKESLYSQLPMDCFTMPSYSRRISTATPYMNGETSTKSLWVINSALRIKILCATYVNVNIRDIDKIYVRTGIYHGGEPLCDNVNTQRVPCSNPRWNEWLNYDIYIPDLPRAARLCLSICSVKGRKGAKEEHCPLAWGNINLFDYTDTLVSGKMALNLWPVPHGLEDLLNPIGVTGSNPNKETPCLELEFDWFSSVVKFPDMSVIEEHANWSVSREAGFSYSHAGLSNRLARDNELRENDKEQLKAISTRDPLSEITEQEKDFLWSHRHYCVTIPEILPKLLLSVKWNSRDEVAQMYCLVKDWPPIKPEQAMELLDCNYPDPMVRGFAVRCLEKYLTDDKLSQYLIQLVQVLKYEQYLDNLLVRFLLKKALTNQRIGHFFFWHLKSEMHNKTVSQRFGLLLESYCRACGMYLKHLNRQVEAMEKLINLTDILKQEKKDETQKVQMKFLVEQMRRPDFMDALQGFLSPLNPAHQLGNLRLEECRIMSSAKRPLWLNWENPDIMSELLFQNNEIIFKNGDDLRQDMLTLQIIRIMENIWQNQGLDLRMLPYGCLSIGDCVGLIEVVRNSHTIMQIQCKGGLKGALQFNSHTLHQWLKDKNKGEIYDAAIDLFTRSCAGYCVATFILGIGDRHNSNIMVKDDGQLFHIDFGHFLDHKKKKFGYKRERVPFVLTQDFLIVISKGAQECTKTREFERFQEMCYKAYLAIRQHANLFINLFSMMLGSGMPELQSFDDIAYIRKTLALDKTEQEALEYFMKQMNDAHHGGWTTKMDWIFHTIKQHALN
Sequence of PI3Kα (P27986 whole entry partner, species assumed): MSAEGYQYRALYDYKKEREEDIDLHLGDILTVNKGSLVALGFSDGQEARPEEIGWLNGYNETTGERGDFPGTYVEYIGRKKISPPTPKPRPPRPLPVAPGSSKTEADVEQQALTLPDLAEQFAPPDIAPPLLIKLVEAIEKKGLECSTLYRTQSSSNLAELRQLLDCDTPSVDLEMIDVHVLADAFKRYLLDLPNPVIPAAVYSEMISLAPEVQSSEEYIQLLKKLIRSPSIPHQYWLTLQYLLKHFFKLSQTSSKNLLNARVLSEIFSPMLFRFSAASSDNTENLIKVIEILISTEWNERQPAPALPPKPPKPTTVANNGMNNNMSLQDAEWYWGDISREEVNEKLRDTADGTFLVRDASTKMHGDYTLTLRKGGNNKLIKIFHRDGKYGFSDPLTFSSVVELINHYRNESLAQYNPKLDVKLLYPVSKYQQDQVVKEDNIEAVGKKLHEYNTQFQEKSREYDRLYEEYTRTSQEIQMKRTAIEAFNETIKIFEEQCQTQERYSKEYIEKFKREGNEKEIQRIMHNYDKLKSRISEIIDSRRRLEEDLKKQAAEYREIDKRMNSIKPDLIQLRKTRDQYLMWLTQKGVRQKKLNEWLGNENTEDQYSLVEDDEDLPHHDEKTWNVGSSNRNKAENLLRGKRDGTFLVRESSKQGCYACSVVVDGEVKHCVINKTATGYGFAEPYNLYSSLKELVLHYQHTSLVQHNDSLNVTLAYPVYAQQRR

One may read the IC50 as the midpoint of a concentration-inhibition curve. With `Nc1ccc(CNc2cccc(Oc3cc(=O)[nH]c4ccccc34)c2)cn1`, the IC50 in assay [1] (Homo sapiens, LNCaP, 72 h) is 4 µM; in assay [2] (Homo sapiens, 72 h), 8 µM; in assay [3], 7.16 µM; in assay [4], 0.11 µM.

On to `CNc1ncccc1CNc1cccc(Oc2cc(=O)[nH]c3ccccc23)c1`, for which the half-inhibitory concentration (IC50) in assay [1] (Homo sapiens, LNCaP, 72 h) was 2.8 µM; in assay [2] (Homo sapiens, 72 h), 6.8 µM; in assay [3] it was greater than 10 µM; in assay [4], 0.09 µM.

In the case of `Nc1ccc(-c2ccc3[nH]c(=O)cc(Oc4ccccc4)c3c2)cc1`, the IC50 in assay [1] (Homo sapiens, LNCaP, 72 h) was 18 µM; in assay [2] (Homo sapiens, 72 h), 60 µM; in assay [3], 6.54 µM; in assay [4] it was greater than 20 µM.

On to `CC(C)(C)CNc1ccc(CNc2cccc(Oc3cc(=O)[nH]c4ccccc34)c2)cn1`, for which the IC50 in assay [1] (Homo sapiens, LNCaP, 72 h) came to 7 µM; in assay [2] (Homo sapiens, 72 h) it was 12 µM; in assay [3] it was 2.09 µM; in assay [4] it was 0.35 µM.

`O=c1cc(Oc2cccc(-c3ccc(NC4CCN(Cc5ccncc5)CC4)cc3)c2)c2ccccc2[nH]1`: the IC50 in assay [1] (Homo sapiens, LNCaP, 72 h) is 6.7 µM; in assay [2] (Homo sapiens, 72 h), 13 µM; in assay [3], greater than 10 µM; in assay [4], 0.12 µM.

For `O=c1cc(Oc2cccc(-c3ccoc3)c2)c2ccccc2[nH]1`, the IC50 came out at 6.2 µM in assay [1] (Homo sapiens, LNCaP, 72 h); 0.3 µM in assay [2] (Homo sapiens, 72 h); 4.32 µM in assay [3]; 0.35 µM in assay [4].

As for `CN(C)CCCOc1ccc(-c2ccc(Oc3cc(=O)[nH]c4ccccc34)cc2)cn1`, the IC50 in assay [1] (Homo sapiens, LNCaP, 72 h) was 2.1 µM; in assay [2] (Homo sapiens, 72 h), 3.9 µM; in assay [3], greater than 10 µM; in assay [4], 0.82 µM.

Take `O=c1cc(Oc2cccc(OC(F)(F)F)c2)c2ccccc2[nH]1`: the concentration for half-maximal inhibition (IC50) stood at 7 µM in assay [1] (Homo sapiens, LNCaP, 72 h); 60 µM in assay [2] (Homo sapiens, 72 h); 8 µM in assay [3]; 0.75 µM in assay [4].

On to `O=c1cc(Oc2cccc(-c3ccc(NCc4ccncc4)cc3)c2)c2ccccc2[nH]1`, for which the 50% inhibitory concentration (IC50) in assay [1] (Homo sapiens, LNCaP, 72 h) was greater than 60 µM; in assay [2] (Homo sapiens, 72 h), greater than 60 µM; in assay [3], 5.25 µM; in assay [4] it was 0.7 µM.

As for `Cc1cccc(Oc2cc(=O)[nH]c3ccccc23)c1` [drawing 313], the IC50 is 60 µM in assay [1]; 40 µM in assay [2] (Homo sapiens, 72 h); greater than 10 µM in assay [3]; 0.5 µM in assay [4].

In the case of `NS(=O)(=O)c1ccc(-c2cccc(Oc3cc(=O)[nH]c4ccccc34)c2)cc1`, the IC50 was greater than 60 µM in assay [1] (Homo sapiens, LNCaP, 72 h); 60 µM in assay [2] (Homo sapiens, 72 h); greater than 10 µM in assay [3]; 0.26 µM in assay [4].

In the case of `CS(=O)(=O)Nc1ccc(-c2cccc(Oc3cc(=O)[nH]c4ccccc34)c2)cc1`, the 50% inhibitory concentration (IC50) in assay [1] (Homo sapiens, LNCaP, 72 h) is 5.8 µM; in assay [2] (Homo sapiens, 72 h), 26 µM; in assay [3] it was greater than 10 µM; in assay [4], 0.27 µM.

As to `CN(C)CCNC(=O)c1ccc(-c2cccc(Oc3cc(=O)[nH]c4ccccc34)c2)cc1`, the IC50 in assay [1] (Homo sapiens, LNCaP, 72 h) is 6 µM; in assay [2] (Homo sapiens, 72 h), 12 µM; in assay [3], greater than 10 µM; in assay [4], 0.24 µM.

With `CC(C)(C)C(=O)Nc1ncccc1CNc1cccc(Oc2cc(=O)[nH]c3ccccc23)c1`, the IC50 came to 1.3 µM in assay [1] (Homo sapiens, LNCaP, 72 h); 2.8 µM in assay [2] (Homo sapiens, 72 h); 4.05 µM in assay [3]; 0.04 µM in assay [4].

On to `O=c1cc(Oc2cccc(-c3cccc(NCc4cccnc4)c3)c2)c2ccccc2[nH]1`, for which the IC50 was 8 µM in assay [1] (Homo sapiens, LNCaP, 72 h); 28 µM in assay [2] (Homo sapiens, 72 h); greater than 10 µM in assay [3]; 0.51 µM in assay [4].

For the molecule `NC(=O)c1ccc(Oc2cc(=O)[nH]c3ccccc23)cc1`, the concentration for half-maximal inhibition (IC50) was greater than 60 µM in assay [1] (Homo sapiens, LNCaP, 72 h); 23 µM in assay [2] (Homo sapiens, 72 h); greater than 10 µM in assay [3]; 1.83 µM in assay [4].

In the case of `CN(C)c1ccc(CNc2cccc(Oc3cc(=O)[nH]c4ccccc34)c2)cn1`, the IC50 in assay [1] (Homo sapiens, LNCaP, 72 h) is greater than 60 µM; in assay [2] (Homo sapiens, 72 h) it was greater than 60 µM; in assay [3], 4.55 µM; in assay [4], 0.16 µM.

For the molecule `Nc1ccc(Oc2cc(=O)[nH]c3ccccc23)cc1`, the IC50 in assay [1] (Homo sapiens, LNCaP, 72 h) was found to be 7.5 µM; in assay [2] (Homo sapiens, 72 h), 27 µM; in assay [3] it was 2.22 µM; in assay [4], 0.16 µM.

For the molecule `O=c1cc(Oc2ccc(F)cc2)c2ccccc2[nH]1`, the half-maximal inhibitory concentration (IC50) in assay [1] (Homo sapiens, LNCaP, 72 h) is 18 µM; in assay [2] (Homo sapiens, 72 h), greater than 60 µM; in assay [3], 1.59 µM; in assay [4], 0.6 µM.

`CC(C)(C)OC(=O)N1CC=C(c2cccc(Oc3cc(=O)[nH]c4ccccc34)c2)CC1`: the 50% inhibitory concentration (IC50) was determined as 13 µM in assay [1] (Homo sapiens, LNCaP, 72 h); 32 µM in assay [2] (Homo sapiens, 72 h); 9.5 µM in assay [3]; 0.65 µM in assay [4].

Regarding `O=c1cc(Oc2cccc(N3CCOCC3)c2)c2ccccc2[nH]1`, the IC50 in assay [1] (Homo sapiens, LNCaP, 72 h) is 9 µM; in assay [2] (Homo sapiens, 72 h), 60 µM; in assay [3] it was greater than 10 µM; in assay [4], 0.43 µM.

Turning to `CN1CCC(Nc2cccc(Oc3cc(=O)[nH]c4ccccc34)c2)CC1`, the IC50 in assay [1] (Homo sapiens, LNCaP, 72 h) is 6 µM; in assay [2] (Homo sapiens, 72 h), 12 µM; in assay [3], greater than 10 µM; in assay [4] it was 0.32 µM.

Take `N#Cc1ccc(Oc2cc(=O)[nH]c3ccccc23)cc1`: the half-inhibitory concentration (IC50) in assay [1] (Homo sapiens, LNCaP, 72 h) came to 5.5 µM; in assay [2] (Homo sapiens, 72 h), 48 µM; in assay [3], 2.09 µM; in assay [4], 7.6 µM.

With `O=c1cc(Oc2cccc(-c3ccccc3)c2)c2ccccc2[nH]1`, the IC50 in assay [1] (Homo sapiens, LNCaP, 72 h) was 17 µM; in assay [2] (Homo sapiens, 72 h), 60 µM; in assay [3], greater than 10 µM; in assay [4], 0.63 µM.

Consider `O=c1cc(Oc2cccc(NCc3cccnc3Cl)c2)c2ccccc2[nH]1` [drawing 217], for which the IC50 was 4.2 µM in assay [1], 10 µM in assay [2], greater than 10 µM in assay [3] and 0.15 µM in assay [4].

For the molecule `CC(C)(C)OC(=O)N1CCN(c2ccc(-c3cccc(Oc4cc(=O)[nH]c5ccccc45)c3)cc2)CC1`, the IC50 in assay [1] (Homo sapiens, LNCaP, 72 h) was 60 µM; in assay [2] (Homo sapiens, 72 h), 44 µM; in assay [3] it was 9.89 µM; in assay [4], 5.85 µM.

Consider `O=c1cc(Oc2cccc(NCCc3cccnc3)c2)c2ccccc2[nH]1`, for which the IC50 in assay [1] (Homo sapiens, LNCaP, 72 h) was 4 µM; in assay [2] (Homo sapiens, 72 h), 11.5 µM; in assay [3], greater than 10 µM; in assay [4] it was 0.12 µM.

For the molecule `O=c1cc(Oc2cccc(-c3ccc(NCCN4CCOCC4)nc3)c2)c2ccccc2[nH]1`, the IC50 in assay [1] (Homo sapiens, LNCaP, 72 h) is 4.7 µM; in assay [2] (Homo sapiens, 72 h), 2 µM; in assay [3], 6.79 µM; in assay [4], 0.15 µM.

On to `O=c1cc(Oc2ccccc2Br)c2ccccc2[nH]1`, for which the 50% inhibitory concentration (IC50) turned out to be 7 µM in assay [1] (Homo sapiens, LNCaP, 72 h); 40 µM in assay [2] (Homo sapiens, 72 h); 8 µM in assay [3]; 0.95 µM in assay [4].

For `Nc1cccc(-c2cccc(Oc3cc(=O)[nH]c4ccccc34)c2)c1`, the half-maximal inhibitory concentration (IC50) was determined as 8 µM in assay [1] (Homo sapiens, LNCaP, 72 h); 30 µM in assay [2] (Homo sapiens, 72 h); 5.59 µM in assay [3]; 0.17 µM in assay [4].

As for `O=c1cc(Oc2ccc(C3=NCCCN3)cc2)c2ccccc2[nH]1`, the IC50 in assay [1] (Homo sapiens, LNCaP, 72 h) is greater than 60 µM; in assay [2] (Homo sapiens, 72 h) it was 60 µM; in assay [3], greater than 10 µM; in assay [4], 0.57 µM.

On to `COc1cnc(OC)c(CNc2cccc(Oc3cc(=O)[nH]c4ccccc34)c2)c1`, for which the IC50 was 9 µM in assay [1] (Homo sapiens, LNCaP, 72 h); 15 µM in assay [2] (Homo sapiens, 72 h); 1.93 µM in assay [3]; 0.51 µM in assay [4].

On to `O=C(NCCN1CCOCC1)Nc1ccc(-c2cccc(Oc3cc(=O)[nH]c4ccccc34)c2)cc1`, for which the IC50 in assay [1] (Homo sapiens, LNCaP, 72 h) is 7 µM; in assay [2] (Homo sapiens, 72 h), 25 µM; in assay [3], greater than 10 µM; in assay [4] it was 0.22 µM.

These data come from patent US20100068204A1, “4-ARYLOXYQUINOLIN-2(1H)-ONES AS MTOR KINASE AND PI3 KINASE INHIBITORS, FOR USE AS ANTI-CANCER AGENTS” (Wyeth, priority 2008, published 2010).
